{"source": "patent US20240148040A1", "about": "“METHODS OF REDUCING EXERCISE-INDUCED INJURY OR ENHANCING MUSCLE RECOVERY AFTER EXERCISE” (intrinsic Medicine, Inc., priority 2020, published 2024)", "tested_on": "CEBPB expression in LPS-stimulated THP-1 cells", "test": "CEBPB expression in nascent RNAs of LPS-stimulated THP-1 cells (nascent RNA sequencing)", "type": "cell-based", "details": "10 ng/mL LPS and 250 μM 2′FL, CEBPB enhanced and upregulated", "description": "THP-1 Cells were treated with 10 ng/mL LPS or 10 ng/mL LPS and 250 μM 2′F and extracted for nascent RNAs at 30 min and 24 hours. The nascent RNAs were sequenced and analyzed as described in Azofeifa et al. (2018), Genome Res. 28: 334-344; the contents of which are expressly incorporated by reference herein.", "data": [{"smiles": "CC1O[C@@H](OC2[C@H](O[C@H]3C(O)C(O)C(O)O[C@H]3CO)OC(CO)[C@H](O)[C@@H]2O)C(O)[C@@H](O)[C@@H]1O", "note": "(some centres unmarked) [2′FL, 2′-fucosyllactose]", "values": [{"measurement": "CEBPB maximum enrichment score (nascent RNAs, 2′FL+LPS treated cells versus LPS alone)", "setting": "30 min", "value": 40}, {"measurement": "CEBPB maximum enrichment score (nascent RNAs, 2′FL+LPS treated cells versus LPS alone)", "setting": "24 hours", "value": 20}]}]}
